The results in this text go back to US8501440B2 (Case Western Reserve University, priority 2006, dated 2013).

“Also recorded” adds a separate entry of the source.

In data set [1] the test system is human breast cancer cell line MCF-7. Put plainly: Mitogenicity in cell culture (cell growth, DNA content). In kind it is cell-based. Conditions: MCF-7, 3-days exposure, cell number and DNA content.
Description: Growth media were supplemented with 10% fetal bovine serum (FBS) (Invitrogen Life Technologies, Inc., Carlsbad, AA), penicillin (100 U/ml) and streptomycin (100 ug/mL). Approximately 1.0×10^5 cells were seeded into 35-mm dishes and cultured until subconfluent. Two assays were employed: (i) Cell-growth curves were determined by hemocytometry. Approximately 5×10^4 were seeded into a 24-well plate and cultured for 24 h. After 24 hour, the medium was removed and replaced with fresh medium containing 0.1% BSA. […] Cell numbers were determined after 3-days exposure to the hormones. (ii) Cell DNA content was determined using a DNA measurement kit (Invitrogen) following 3-days exposure to the hormones in cell culture as above.
Data set [2] has as its system diabetic Lewis rats. Put plainly: Blood glucose lowering in streptozotocin-diabetic rats. In kind it is in vivo, rat. Conditions: streptozotocin-diabetic male Lewis rats, 1.5 U/kg subcutaneously, 0-90 min.
Description: Male Lewis rats (˜250 g body weight) were rendered diabetic with streptozotocin. […] Rats were injected subcutaneously at time=0 with 1.5 U/kg body weight in 100 μl of diluent. Blood was obtained from clipped tip of the tail at time 0 and every 10 minutes up to 90 min. Blood glucose was measured using a Hypoguard Advance Micro-Draw meter.
Data set [3] is described as follows: Fibrillation assay (thioflavin T fluorescence). The data set is classed as physicochemical. Conditions: zinc free, 60 μM, pH 7.4, 37° C., tilting table.
Description: Samples (in triplicate) were placed in sealed glass vials and placed on an automated tilting table at 37° C. At successive times aliquots were withdrawn and analyzed by a thioflavin T (ThT) fluorescence spectroscopy assay to determine the onset of fibrillation as follows.
Thioflavin T (ThT) was made 1 mM in double-distilled water and stored at 4° C. in the dark. To monitor fibrillation, 10-μl aliquots of samples were obtained at indicated time points and were mixed with 3 ml of ThT assay buffer (5 μM ThT in 50 mM Tris-HCl (pH 7.5) and 100 mM NaCl). Fluorescence measurements were performed using an Aviv spectrofluorometer in 1-cm quartz cuvettes. Emission spectra were collected from 470 to 500 nm following excitation at 450 nm; the integration time was 1 s. ThT in buffer without protein was used as baseline. The fibrillation lag time is defined as the time required to observe twofold enhancement in ThT emission. The threshold of twofold-enhanced ThT fluorescence is followed a rapid increase in turbidity associated with elongation of mature fibrils and a further increase in ThT fluorescence.
Data set [4] is described as follows: Thermodynamic stability by guanidine denaturation. In kind it is physicochemical. The following applies: 37° C. and pH 7.4. The protocol:
Circular Dichroism—Samples were dissolved in either 10 mM phosphate and 100 mM KCl (pH 7.4) or 0.01 N HCl (pH 2.0) at a protein concentration of 25 μM. To remove particulate matter and protein aggregates, samples were filtered ([…]; Satorius, Goetlingen, Germany). Spectra, acquired with an Aviv spectropolarimeter (Aviv Biomedical, Inc., Lakewood, N.J.), were normalized. […]

Data set [5] addresses T1, Insulin-like Growth Factor receptor (IGFR) (Homo sapiens, UniProt P08069).
T1 construct: expressed in transfected cells; host or cells: PEAK rapid cells, transient transfection, Triton X-100 lysate
Put plainly: IGFR binding assay (microtiter plate antibody assay). Conditions: relative to IGF-1. The protocol:
Receptor-Binding Assays. […] Subsequent to incubation, mixtures are diluted with 1 ml of ice-cold buffer and centrifuged (10,000 g) for 5 min at 4° C. The supernatant will then be removed by aspiration, and the membrane pellet counted for radioactivity. […] Binding data were analyzed by a two-site sequential model. A corresponding microtiter plate antibody assay using the IGF Type I receptor was employed to assess cross-binding to this homologous receptor.
DNA for transfection was prepared according to the method of Mynarcik et al. (J. Biol. Chem., 1997, 272, pp 18650-18655). The receptor cDNAs were expressed transiently in PEAK rapid cells using polyethyleneimine. Cells were harvested by lysis in 0.15M NaCl and 0.1M Tris (pH 8) containing 1% (v/v) Triton X-100 and protease inhibitor cocktail three days post-transfection. Lysates were stored at −80° C. until assay. Receptor-binding assays were performed as described by Mynarcik. Microtiter strip plates (Nunc Maxisorb) were incubated overnight at 4° C. with anti-FLAG IgG ([…] of a […] solution in PBS). […] Binding data were analyzed by a two-site sequential model with homologous or heterologous labeled and unlabeled ligands to obtain dissociation constants as described by Whittaker et al. (J. Biol. Chem., 2001, 276, pp 43980-43986).

T1 sequence (P08069 31-736 limits assumed): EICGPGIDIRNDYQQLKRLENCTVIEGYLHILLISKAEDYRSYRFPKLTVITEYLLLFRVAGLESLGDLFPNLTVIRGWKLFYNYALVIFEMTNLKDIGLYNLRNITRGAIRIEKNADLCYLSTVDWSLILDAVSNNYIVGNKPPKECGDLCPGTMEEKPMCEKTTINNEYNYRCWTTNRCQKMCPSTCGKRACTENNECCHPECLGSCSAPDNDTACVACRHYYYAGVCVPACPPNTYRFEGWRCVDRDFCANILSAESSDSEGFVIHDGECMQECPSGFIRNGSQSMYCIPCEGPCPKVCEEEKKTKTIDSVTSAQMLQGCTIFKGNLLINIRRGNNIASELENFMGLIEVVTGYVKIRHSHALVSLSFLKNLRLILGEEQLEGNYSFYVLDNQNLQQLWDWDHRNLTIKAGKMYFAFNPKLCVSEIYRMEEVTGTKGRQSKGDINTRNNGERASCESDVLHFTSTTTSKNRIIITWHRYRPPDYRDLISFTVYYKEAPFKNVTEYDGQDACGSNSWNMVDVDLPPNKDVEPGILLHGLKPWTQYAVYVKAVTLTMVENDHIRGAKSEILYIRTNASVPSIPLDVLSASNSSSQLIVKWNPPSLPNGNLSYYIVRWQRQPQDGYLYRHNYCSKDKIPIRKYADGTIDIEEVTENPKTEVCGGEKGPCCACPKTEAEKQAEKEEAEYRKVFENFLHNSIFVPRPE
T1 sequence (P08069 741-1367 partner limits assumed): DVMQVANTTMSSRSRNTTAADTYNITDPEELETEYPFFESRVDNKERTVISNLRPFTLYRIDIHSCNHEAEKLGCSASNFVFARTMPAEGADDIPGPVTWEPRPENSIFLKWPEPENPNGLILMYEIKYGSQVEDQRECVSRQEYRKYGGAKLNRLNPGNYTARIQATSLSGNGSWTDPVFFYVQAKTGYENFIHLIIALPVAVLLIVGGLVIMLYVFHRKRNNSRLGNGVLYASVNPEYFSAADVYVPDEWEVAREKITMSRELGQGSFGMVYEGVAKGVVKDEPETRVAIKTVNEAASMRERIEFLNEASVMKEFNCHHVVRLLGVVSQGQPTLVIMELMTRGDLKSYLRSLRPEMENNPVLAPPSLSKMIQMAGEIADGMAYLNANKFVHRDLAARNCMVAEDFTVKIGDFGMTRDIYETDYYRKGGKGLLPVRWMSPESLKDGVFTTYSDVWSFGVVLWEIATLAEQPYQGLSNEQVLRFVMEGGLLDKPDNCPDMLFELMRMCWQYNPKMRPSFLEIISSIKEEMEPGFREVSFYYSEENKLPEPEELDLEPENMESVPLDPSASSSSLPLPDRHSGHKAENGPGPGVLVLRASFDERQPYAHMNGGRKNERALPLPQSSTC

For “57mer single-chain analogue: 57-mer single-chain insulin, SEQ ID NO: 26; His^A8, Asp^B10, Asp^B28, Pro^B29 substitutions; six-residue linker GGGPRR between B30 and A1”, in data set [1] (listed as 57 mer single-chain insulin analogue), the mitogenicity result was “indistinguishable from human insulin; also recorded: significantly less mitogenic than IGF-I”. In addition, in data set [2], the “rate of decrease of blood glucose concentration” value came to 62.0±16.3 mg/dL per h.

Regarding “Corresponding two-chain analogue: two-chain insulin analogue with His^A8, Asp^B10, Asp^B28, Pro^B29 substitutions; SEQ ID NOS: 28 and 29”, the “Lag time (days ± 10%)” value in data set [3] is 70 ± 5 days. The ΔGu in data set [4] is 3.6 kcal/mol. In addition, the mitogenicity entry in data set [1] was “intermediate between the single-chain insulin analogue”. For the same substance, the “rate of decrease of blood glucose concentration” value in data set [2] was 53.2±11.7 mg/dL per h.

As for IGF-I, the “IGFR Relative Affinity” value in data set [5] is reported as 1.
